From patent US20090281278A1, “MODIFIED MOLECULES WHICH PROMOTE HEMATOPOIESIS” (priority 2006, published 2009)
Entries after “also recorded” stand apart in the source; their conditions may differ. Bridges are numbered along the chain shown (N, C = ends). Where no end group is shown, it is not given here. [ ]: non-standard residue; d: D form. 1Nal = N[C@@H](Cc1cccc2ccccc12)C(=O)O

Test system: TF-1 cells
Test: TF-1 proliferation assay (MTT/MTS, number of viable cells)
Assay type: cell-based, human
Conditions: for efficacy and potency (EPO mimetic activity) compared with reference peptides: TF-1 proliferation, normalized plots
Protocol: An experiment was performed in a standard TF-1 cell assay as recommended by the European Pharmacopoe for the determination of EPO-like activity in vitro (please also see below). Basically, TF-1 cells (their proliferation being dependent from the presence of EPO-like activity) are cultured in the presence various concentrations of EPO or EPO-mimetic substances. The resulting cell numbers are quantified using colorimetric MTT-assay and photometric measurements.
TF1 cells in logarithmic growth phase (2×10^5-1×10^6 cells/ml grown in RPMI with 20% fetal calf serum (FCS) and 0.5 ng/ml IL-3) were counted, and the number of cells needed to perform an assay were centrifuged (5 min. 1500 rpm) and resuspended in RPMI with 5% FCS without IL-3 at 300 000 cells/ml. Cells were precultured in this (starvation) medium without IL-3 for 48 hours. Before starting the assay the cells were counted again.
Shortly before starting the assay stock solutions of peptides and EPO were prepared. Peptides were weighed and dissolved in RPMI with 5% FCS up to a concentration of 1 mM, 467 μM or 200 μM. EPO stock solutions were 10 nM or 20 nM. 292 μl of these stock solutions were pipetted into one well of a 96 well culture plate—one plate was taken for each substance to be tested. Two hundred μl of RPMI with 5% FCS were pipetted into seventeen other wells in each plate. Ninety-two μl of stock solution were pipetted into a well containing 200 μl medium. The contents were mixed, and 92 μl from this well was transferred to the next, and so forth. This way a dilution series (18 dilutions) of each substance was prepared such that in each consecutive well the concentration was 1:√10 of the concentration in the well before that. From each well 3×50 μl was transferred to three empty wells. This way each concentration of substance was measured in quadruplicate. Note that the uppermost and lowermost line of wells of each plate was left void.
Pre-treated (starved) cells were centrifuged (5 min. 1500 rpm) and resuspended in RPMI with 5% FCS at a concentration of 200 000 cells per ml. […]
To measure the number of live cells per well, ready-to-use […] (Promega, CellTiter 96 Aqueous One Solution Cell Proliferation Assay) was thawed in a 37° C. water bath. […] Twenty-five μl of a 10% SDS solution was added, and plates were measured in an ELISA reader (Genios, Tecan). […]
For optimal results TF-1 cells should be cultured for two days in the absence of any cytokine (starved) before starting the assay. Three days after starting the assay, cell proliferation is measured indirectly by assaying the number of viable cells.
A tetrazolium reagent, called MTS, is added which is reduced to coloured formazan. […] The amount of formazan is measured spectrophotometrically. […]

Row | Substance | efficacy and potency (EPO mimetic activity) compared with reference peptides | agonist behaviour (maximal response compared with EPO) (peptides in their monomeric form)
1 | AGEM40—HES: peptide (AGEM40) HESylated according to the supravalence principle (Ac-CGGTYSCHFGKLT[1Nal]VCKKQRGGGTYSCHFGKLT[1Nal]VCKKQRG-NH2; disulfide 7-16, 27-36 (inferred); not fully specified (residue 1); also: HES (hydroxyethyl starch) conjugate, maleimide-linked) | highly effective and potent | –
2 | Ac-GGTYSCHFGKLT-Na1-VCKKQRG-Am (Ac-GGTYSCHFGKLT[1Nal]VCKKQRG-NH2; cysteine pairing not given here) [BB68] | even more effective than EMP1 and BB49; also recorded: improved effect | –
3 | Ac-GGTYSCHFGKLTWVCKKQGG (cysteine pairing not given here) [BB49] | efficacy and potency in the same range as EMP1 | –
4 | GGTYSCHFGPLTWVCKPQGG [EMP1, reference compound] | – | partial agonists
